One experiment has as its target T1, human Nav1.1 (Homo sapiens, UniProt P35498).
T1 construct: host or cells: HEK293
Briefly: Amplification of Nav1.1-derived voltage-gated sodium current (Nav1.1 current), automated patch clamp (Test 1). Type of experiment: cell-based. Particulars: Concentration for evaluation 1 μM; HEK293 cell line stably expressing human Nav1.1. As to the method:
Test 1: Evaluation of the Amplification of Nav1.1-Derived Voltage-Gated Sodium Current (Nav1.1 Current) by Using a Cell Line Stably Expressing Human Nav1.1
(1) Preparation of Test Compound Solution
Test compounds were prepared by dissolving in DMSO at 200 times of the concentration at evaluation, and diluting the obtained solution to twice the concentration of evaluation with an extracellular fluid (135 mmol/L NaCl, 4 mmol/L KCl, 1 mmol/L MgCl2, 5 mmol/L CaCl2, 5 mmol/L Glucose, 10 mmol/L HEPES).
(2) Induction and Measurement of Nav1.1 Current
A HEK293 cell line stably expressing human Nav1.1 (cat #CYL3009, Eurofins DiscoverX Products, LLC, Human Embryonic Kidney 293) was purchased, and used in the present test. Nav1.1 current was induced by stimulating Ramp wave voltage. Detection of current which accompanied with the stimulation of voltage was carried out by a patch-clamp voltage-clamp method using HTS automated patch clamp system (SynchroPatch 768PE, Nanion Technologies GmbH, Germany). Only cells with more than 500 pA of voltage-gated sodium channel current were used for the evaluation of the activity of compounds on Nav1.1 current because there was the possibility that currents derived from endogenous voltage-gated sodium channels accounted for large proportion in cells with less than 500 pA of voltage-gated sodium channel current which was induced by stimulating Ramp wave voltage.
(3) Pharmacological Effect on Nav1.1 Current
The effect of test compounds on the amplification of Nav1.1-derived voltage-gated sodium current was evaluated by using a cell line stably expressing human Nav1.1 and HTS automated patch clamp system. In other words, test compounds were added in an extracellular fluid containing 1% DMSO, and evaluated as a change of the peak value of Nav1.1 current and the area under the curve (AUC).
(4) Method for Pharmacological Evaluation
The Nav1.1 current amplification rates of test compounds were calculated by the following formula:
Nav1.1 current amplification rate (%)=100×[the peak value of Nav1.1 current or the area under the curve after the addition of test compounds]/[the peak value of Nav1.1 current or the area under the curve before the addition of test compounds]−100
(In general: In patch-clamp work, channel activity is measured electrically.)
Regarding `CN(CC1CCCC1)c1cnc2cnn(CC(=O)Nc3ccn4ncnc4c3)c2n1` [Example 626], the “Nav1.1 current amplification rate (%)” value was determined as 200%.

Consider `CN(c1cnc2cnn(CC(=O)Nc3ccc4ncnn4c3)c2n1)C1CCCC1` [Example 669], for which the “Nav1.1 current amplification rate (%)” value came out at 30%.

In the case of `COCCN(C)Cc1cccc2c1CCN2C(=O)Cn1nc(C2=CCC(C)CC2)ccc1=O` (centres unmarked) [Example 275], the “Nav1.1 current amplification rate (%)” value worked out at 46%.

Consider `CN(c1ncc2cnn(CC(=O)Nc3ccc4ncnn4c3)c2n1)C1CC(C)(C)C1` [Example 668], for which the “Nav1.1 current amplification rate (%)” value is 72%.

Consider `CN(c1cnc2cnn(CC(=O)Nc3ccc4ncnn4c3)c2n1)C1CC1` [Example 664], for which the “Nav1.1 current amplification rate (%)” value was 34%.

For `O=C(Cn1ncc2cnc(-c3ccc(Cl)s3)nc21)Nc1ccn2ncnc2c1` [Example 774], the “Nav1.1 current amplification rate (%)” value turned out to be 50%.

`CC1CC=C(c2ccc(=O)n(CC(=O)Nc3ccn4ncnc4c3)n2)CC1` (centres unmarked) [Example 330]: the “Nav1.1 current amplification rate (%)” value worked out at 191%.

For the molecule `CC1CC=C(c2ccc(=O)n(CC(=O)N3CCc4cc(-c5cccnc5)ccc43)n2)CC1` (centres unmarked) [Example 298], the “Nav1.1 current amplification rate (%)” value is recorded as 51%.

As for `CC1(C)CC=C(c2cnc3cnn(CC(=O)Nc4ccc5ncnn5c4)c3n2)CC1` [Example 649], the “Nav1.1 current amplification rate (%)” value stood at 91%.

As to `CC(C)CCOc1ncc2cnn(CC(=O)Nc3ccn4ncnc4c3)c2n1` [Example 780], the “Nav1.1 current amplification rate (%)” value is on record as 10%.

For `CC1CC=C(c2ccc(=O)n(CC(=O)N3CCc4c(-c5cn[nH]c5)cncc43)n2)CC1` (centres unmarked) [Example 311], the “Nav1.1 current amplification rate (%)” value was 265%.

The same experiment, now with this note: Concentration for evaluation 3 μM; HEK293 cell line stably expressing human Nav1.1.
For `Cc1ncc(-c2cccc3c2CCN3C(=O)Cn2nc(C3=CCC(C)CC3)ccc2=O)cn1` (centres unmarked) [Example 264], the “Nav1.1 current amplification rate (%)” value was found to be 597%.

Regarding `CC1CC=C(c2ccc(=O)n(CC(=O)N3CCc4c(CN5CCOCC5)cccc43)n2)CC1` (centres unmarked) [Example 270], the “Nav1.1 current amplification rate (%)” value was 481%.

With `CC1CC=C(c2ccc(=O)n(CC(=O)Nc3ccc4oc(C(C)(C)O)nc4c3)n2)CC1` (centres unmarked) [Example 327], the “Nav1.1 current amplification rate (%)” value came to 124%.

Regarding `CC1CC=C(c2ccc(=O)n(CC(=O)N3CCc4c(C5CN(CCO)C5)cccc43)n2)CC1` (centres unmarked) [Example 303], the “Nav1.1 current amplification rate (%)” value is on record as 67%.

The experiment is the same for the next values; noted with them: Concentration for evaluation 10 μM; HEK293 cell line stably expressing human Nav1.1.
With `CC1CC(C)CN(c2ccc(=O)n(CC(=O)Nc3ccc(C#N)cc3)n2)C1` (centres unmarked) [Example 15], the “Nav1.1 current amplification rate (%)” value turned out to be 10%.

Turning to `COc1nc2cc(NC(=O)Cn3nc(C4=CCC(C)CC4)ccc3=O)ccc2o1` (centres unmarked) [Example 239], the “Nav1.1 current amplification rate (%)” value came to 310%.

Turning to `CCCCN(C)c1ccc(=O)n(CC(=O)Nc2ccc(C#N)cc2)n1` [Example 30], the “Nav1.1 current amplification rate (%)” value was 77%.

As for `CC1CC=C(c2ccc(=O)n(CC(=O)Nc3ccnc(CN4CCOCC4)c3)n2)CC1` (centres unmarked) [Example 373], the “Nav1.1 current amplification rate (%)” value was determined as 35%.

Consider `CC1(C)CC=C(c2ccc(=O)n(CC(=O)N3CCN(c4cncc(F)c4)CC3)n2)C1` [Example 483], for which the “Nav1.1 current amplification rate (%)” value came to 175%.

Regarding `CC1CCN(c2ccc(=O)n(CC(=O)Nc3ccc4c(c3)NC(=O)C4)n2)CC1` [Example 86], the “Nav1.1 current amplification rate (%)” value amounted to 73%.

For `CC1CCN(c2ccc(=O)n(CC(=O)Nc3ccn4ccnc4c3)n2)CC1` [Example 72], the “Nav1.1 current amplification rate (%)” value amounted to 119%.

For `CN1CCN(c2cccc3c2CCN3C(=O)Cn2nc(C3=CCC(C)(C)CC3)ccc2=O)CC1` [Example 433], the “Nav1.1 current amplification rate (%)” value is 192%.

Consider `CC1CC=C(c2ccc(=O)n(CC(=O)N3CC=C(c4cncnc4)CC3)n2)CC1` (centres unmarked) [Example 398], for which the “Nav1.1 current amplification rate (%)” value is listed as 175%.

As to `N#Cc1ccc(NC(=O)Cn2nc(N3CCC4(CCCCC4)C3)ccc2=O)cc1` [Example 31], the “Nav1.1 current amplification rate (%)” value worked out at 220%.

For `COc1cc(-c2cc(Cl)cs2)nn(CC(=O)N2CCc3c(N4CCOCC4)cccc32)c1=O` [Example 479], the “Nav1.1 current amplification rate (%)” value is 420%.

With `COc1cc(C2=CCC(C)(C)CC2)nn(CC(=O)Nc2ccn3ccnc3c2)c1=O` [Example 456], the “Nav1.1 current amplification rate (%)” value is 224%.

With `CN(c1cnc2cnn(CC(=O)Nc3cc4cccnc4cn3)c2n1)C1CC1` [Example 729], the “Nav1.1 current amplification rate (%)” value is 55%.

Regarding `CC1CC=C(c2ccc(=O)n(CC(=O)Nc3cc(F)c4ocnc4c3)n2)CC1` (centres unmarked) [Example 241], the “Nav1.1 current amplification rate (%)” value was found to be 260%.

As for `CC1CCN(c2ccc(=O)n(CC(=O)Nc3ccnc(N4CCOCC4)c3)n2)CC1` [Example 66], the “Nav1.1 current amplification rate (%)” value turned out to be 49%.

`O=C(Cn1nc(C2=CCC(F)(F)CC2)ccc1=O)N1CCN(c2cncc(F)c2)CC1` [Example 489]: the “Nav1.1 current amplification rate (%)” value is recorded as 29%.

Turning to `CC1CCN(c2ccc(=O)n(CC(=O)Nc3ccc4c(c3)ncn4C)n2)CC1` [Example 98], the “Nav1.1 current amplification rate (%)” value amounted to 15%.

In the case of `CC1(C)CC=C(c2ccc(=O)n(CC(=O)N3CCC4(CCOCC4)CC3)n2)CC1` [Example 441], the “Nav1.1 current amplification rate (%)” value worked out at 30%.

The experiment is the same for the next values; noted with them: Concentration for evaluation 50 μM; HEK293 cell line stably expressing human Nav1.1.
In the case of `O=C(Cn1ncc2cnc(N3CC(C4CC4)C3)nc21)Nc1ccn2ncnc2c1` [Example 782], the “Nav1.1 current amplification rate (%)” value is 64%.

For the molecule `CC1CC=C(c2ccc(=O)n(CC(=O)N3CCc4c(-c5cc[nH]n5)ccnc43)n2)CC1` (centres unmarked) [Example 291], the “Nav1.1 current amplification rate (%)” value was found to be 212%.

For the molecule `CC1CC=C(c2ccc(=O)n(CC(=O)NC3CCN(c4ccccc4)C3)n2)CC1` (centres unmarked) [Example 369], the “Nav1.1 current amplification rate (%)” value is given as 10%.

The experiment is the same for the next values; noted with them: HEK293, Concentration for evaluation 1 μM; HEK293 cell line stably expressing human Nav1.1; read-out: Nav1.1 current amplification rate (%).
For `N#Cc1cnc(NC(=O)Cn2ncc3ncc(N4CCC5(CC5)C(F)(F)C4)nc32)cn1` [Example 754], the activation at 1 µM was determined as 14%.

`CN(CC1CC1)c1cnc2cnn(CC(=O)Nc3ccc(C#N)nc3)c2n1` [Example 748]: the activation at 1 µM is 17%.

In the case of `CC(C)CN(C)c1cnc2cnn(CC(=O)Nc3ccn4ncnc4c3)c2n1` [Example 573, 2-{6-[Methyl(2-methylpropyl)amino]-1H-pyrazolo[3,4-b]pyrazin-1-yl}-N-([1,2,4]triazolo[1,5-a]pyridin-7-yl) acetamide], the activation at 1 µM was 44%.

On to `CN(c1cnc2cnn(CC(=O)Nc3ccc4ncncc4c3)c2n1)C1CC2(CC2)C1` [Example 759], for which the activation at 1 µM was 57%.

Staying with this experiment, now noted: HEK293, Concentration for evaluation 3 μM; HEK293 cell line stably expressing human Nav1.1; read-out: Nav1.1 current amplification rate (%).
`O=C(Cn1ncc2ncc(C3CCC3)nc21)Nc1ccn2ncnc2c1` [Example 576, 2-(6-Cyclobutyl-1H-pyrazolo[3,4-b]pyrazin-1-yl)-N-([1,2,4]triazolo[1,5-a]pyridin-7-yl)acetamide]: the activation at 3 µM was 14%.

For the molecule `Cc1nn(CC(=O)Nc2ccn3ncnc3c2)c2nc(N3CCC4(CCC4)C3)cnc12` [Example 738], the activation at 3 µM was 22%.

Staying with this experiment, now noted: HEK293, Concentration for evaluation 10 μM; HEK293 cell line stably expressing human Nav1.1; read-out: Nav1.1 current amplification rate (%).
`N#Cc1cc(NC(=O)Cn2nc(N3CCCCC3)ccc2=O)ccn1` [Example 116]: the activation at 10 µM worked out at 12%.

The experiment is the same for the next values; noted with them: HEK293, Concentration for evaluation 50 μM; HEK293 cell line stably expressing human Nav1.1; read-out: Nav1.1 current amplification rate (%).
In the case of `O=C(Cn1ncc2cnc(OCCC3CC3)nc21)Nc1ccn2ncnc2c1` [Example 762, 2-[6-(2-Cyclopropylethoxy)-1H-pyrazolo[3,4-d]pyrimidin-1-yl]-N-([1,2,4]triazolo[1,5-a]pyridin-7-yl)acetamide], the activation at 50 µM came out at 37%.

Staying with this experiment, now noted: HEK293, concentration for evaluation 1 μM; HEK293 stably expressing human Nav1.1; read-out: Nav1.1 current amplification rate (%).
With `CC1CC=C(c2cnc3cnn(CC(=O)Nc4ccn5ncnc5c4)c3n2)CC1` (centres unmarked) [Example 895, 2-[6-(4-methylcyclohex-1-en-1-yl)-1H-pyrazolo[3,4-b]pyrazin-1-yl]-N-([1,2,4]triazolo[1,5-a]pyridin-7-yl)acetamide], the activation at 1 µM is 244%.

The same experiment, now with this note: concentration for evaluation 1 μM; HEK293 stably expressing human Nav1.1.
As for `CC1(C)CCN(c2ccc3cnn(CC(=O)Nc4ccn5ncnc5c4)c3n2)CC1` [Example 856], the “Nav1.1 current amplification rate (%)” value amounted to 50%.

For `CC1CCN(c2ncc3cnn(CC(=O)Nc4ccc5ncnn5c4)c3n2)CC1(F)F` (centres unmarked) [Example 815], the “Nav1.1 current amplification rate (%)” value worked out at 86%.

With `N#Cc1ccc(NC(=O)Cn2ncc3cnc(N4CCC5(CC5)C(F)(F)C4)nc32)nc1` [Example 830], the “Nav1.1 current amplification rate (%)” value is reported as 54%.

`O=C(Cn1ncc2ccc(-c3ccc(F)cc3F)nc21)Nc1ccc2ncnn2c1` [Example 871]: the “Nav1.1 current amplification rate (%)” value was found to be 10%.

With `O=C(Cn1ncc2cnc(N3CCC4C(C3)C4(F)F)nc21)Nc1ccc2ncnn2c1` (centres unmarked) [Example 816], the “Nav1.1 current amplification rate (%)” value is on record as 13%.

(Values after patent US20230109839A1, “THERAPEUTIC AGENT FOR TAUOPATHIES” (SUMITOMO PHARMA CO., LTD., priority 2020, published 2023).)
